Measured values published in the NIST ThermoML archive (doi:10.1021/acs.jced.7b00106).
Numbers after ± are expanded uncertainties.

Conditions: Hot wire method

FC(F)(F)/C=C/Cl [(E)-1-chloro-3,3,3-trifluoroprop-1-ene]
Conditions | thermal conductivity [W/m/K]
334.63 K, 179 kPa, Gas | 0.01343 ± 0.00048
334.73 K, 328 kPa, Gas | 0.01333 ± 0.00047
334.82 K, 112 kPa, Gas | 0.01357 ± 0.00048
334.91 K, 97 kPa, Gas | 0.01369 ± 0.00048
334.92 K, 253 kPa, Gas | 0.0134 ± 0.00047
335.16 K, 178 kPa, Gas | 0.01354 ± 0.00048
335.37 K, 112 kPa, Gas | 0.01364 ± 0.00048
335.44 K, 97 kPa, Gas | 0.01368 ± 0.00048
335.71 K, 176 kPa, Gas | 0.01352 ± 0.00048
336 K, 98 kPa, Gas | 0.01372 ± 0.00048
336.29 K, 176 kPa, Gas | 0.01354 ± 0.00048
341.04 K, 7818 kPa, Liquid | 0.07607 ± 0.008
341.05 K, 502 kPa, Liquid | 0.07132 ± 0.0076
341.06 K, 4000 kPa, Liquid | 0.07359 ± 0.0035
341.11 K, 4008 kPa, Liquid | 0.07339 ± 0.0022
341.11 K, 7812 kPa, Liquid | 0.07571 ± 0.0023
341.12 K, 503 kPa, Liquid | 0.07103 ± 0.0042
341.12 K, 34293 kPa, Liquid | 0.08893 ± 0.012
341.19 K, 34283 kPa, Liquid | 0.08864 ± 0.0099
341.28 K, 19052 kPa, Liquid | 0.08179 ± 0.0031
341.29 K, 26074 kPa, Liquid | 0.08503 ± 0.0057
341.35 K, 19044 kPa, Liquid | 0.08181 ± 0.0025
341.36 K, 12813 kPa, Liquid | 0.07865 ± 0.0026
341.37 K, 26069 kPa, Liquid | 0.08479 ± 0.0053
341.4 K, 7815 kPa, Liquid | 0.07567 ± 0.0049
341.42 K, 3996 kPa, Liquid | 0.0734 ± 0.006
341.44 K, 510 kPa, Liquid | 0.07095 ± 0.005
341.44 K, 12800 kPa, Liquid | 0.07849 ± 0.0032
341.47 K, 114 kPa, Gas | 0.01391 ± 0.0005
341.48 K, 7806 kPa, Liquid | 0.07567 ± 0.0039
341.5 K, 113 kPa, Gas | 0.01391 ± 0.00049
341.5 K, 182 kPa, Gas | 0.01442 ± 0.00051
341.5 K, 4008 kPa, Liquid | 0.07332 ± 0.0028
341.53 K, 498 kPa, Liquid | 0.07081 ± 0.0051
341.53 K, 53967 kPa, Liquid | 0.09634 ± 0.0074
341.54 K, 65483 kPa, Liquid | 0.1004 ± 0.0035
341.56 K, 117 kPa, Gas | 0.01424 ± 0.00051
341.57 K, 34287 kPa, Liquid | 0.08857 ± 0.0051
341.61 K, 65470 kPa, Liquid | 0.1001 ± 0.0046
341.62 K, 53976 kPa, Liquid | 0.09608 ± 0.0039
341.73 K, 464 kPa, Gas | 0.01417 ± 0.001
341.74 K, 113 kPa, Gas | 0.01377 ± 0.00049
341.74 K, 256 kPa, Gas | 0.01435 ± 0.00052
341.76 K, 26067 kPa, Liquid | 0.08459 ± 0.0026
341.77 K, 19040 kPa, Liquid | 0.08164 ± 0.0031
341.78 K, 181 kPa, Gas | 0.01434 ± 0.00051
341.79 K, 114 kPa, Gas | 0.0139 ± 0.00052
341.8 K, 177 kPa, Gas | 0.01425 ± 0.0005
341.82 K, 7816 kPa, Liquid | 0.0756 ± 0.0028
341.84 K, 117 kPa, Gas | 0.01379 ± 0.00049
341.84 K, 465 kPa, Gas | 0.01387 ± 0.0011
341.84 K, 4002 kPa, Liquid | 0.07296 ± 0.0032
341.87 K, 26056 kPa, Liquid | 0.08482 ± 0.0026
341.88 K, 116 kPa, Gas | 0.01443 ± 0.00056
341.88 K, 490 kPa, Liquid | 0.07091 ± 0.0024
341.88 K, 12799 kPa, Liquid | 0.07857 ± 0.0027
341.88 K, 19048 kPa, Liquid | 0.08151 ± 0.0031
341.91 K, 380 kPa, Gas | 0.01419 ± 0.0005
341.92 K, 7805 kPa, Liquid | 0.07534 ± 0.0029
341.96 K, 4010 kPa, Liquid | 0.07316 ± 0.0037
341.98 K, 253 kPa, Gas | 0.01421 ± 0.00051
341.99 K, 264 kPa, Gas | 0.01423 ± 0.0005
341.99 K, 497 kPa, Liquid | 0.07068 ± 0.0024
342 K, 113 kPa, Gas | 0.01367 ± 0.00048
342.01 K, 464 kPa, Gas | 0.0141 ± 0.001
342.01 K, 65484 kPa, Liquid | 0.1003 ± 0.0031
342.02 K, 53960 kPa, Liquid | 0.09643 ± 0.0035
342.05 K, 176 kPa, Gas | 0.01407 ± 0.0005
342.09 K, 117 kPa, Gas | 0.01369 ± 0.00048
342.1 K, 180 kPa, Gas | 0.01435 ± 0.00051
342.12 K, 465 kPa, Gas | 0.01384 ± 0.00087
342.12 K, 34281 kPa, Liquid | 0.08848 ± 0.003
